Data set [1] has as its target Non-receptor tyrosine-protein kinase TYK2 (Homo sapiens, UniProt P29597). Briefly: Inhibition of GST-fused Tyk2 (888 to 1187 residues) (unknown origin) using FITC-AhxKKSRGDYMTMQIG-NH2 peptide as substrate incubated for 60 mins in presence of ATP by Janus kinase assay.
Data set [2] concerns the target T1, JAK3/JAK1 (Homo sapiens, UniProt P23458+P52333). It is filed as tissue-based, Blood.
Description: Inhibition of JAK1/JAK3 in human blood assessed as reduction of IL-2 stimulated STAT phosphorylation preincubated for 30 mins followed by IL-2 stimulation for 15 mins by flow cytometry method
For data set [3], the target named is T1, JAK3/JAK1. In words: Inhibition of JAK1/JAK3 in human M07E cells assessed as reduction of IL-15 stimulated STAT phosphorylation preincubated for 30 mins followed by IL-15 stimulation for 15 mins by flow cytometry method. It is filed as cell-based. (In general: A flow cytometer gives signals particle by particle.)
The next data set addresses JAK1/TYK2 (Homo sapiens, UniProt P23458+P29597). Briefly: Inhibition of JAK1/TYK2 in human M07E cells assessed as reduction of IFN alpha stimulated STAT phosphorylation preincubated for 30 mins followed by IFN alpha stimulation for 15 mins by flow cytometry method. It is filed as cell-based.
Data set [4] deals with Tyrosine-protein kinase JAK2 (Homo sapiens, UniProt O60674). In words: Inhibition of GST-fused JAK2 (808 to 1132 residues) (unknown origin) using Carboxyfluorescein-Ahx-GGEEEEYFELVKKKK peptide as substrate incubated for 60 mins in presence of ATP by Janus kinase assay.
The target of data set [5] is T2, Tyrosine-protein kinase JAK3 (Homo sapiens, UniProt P52333).
T2 sequence (P52333 whole entry): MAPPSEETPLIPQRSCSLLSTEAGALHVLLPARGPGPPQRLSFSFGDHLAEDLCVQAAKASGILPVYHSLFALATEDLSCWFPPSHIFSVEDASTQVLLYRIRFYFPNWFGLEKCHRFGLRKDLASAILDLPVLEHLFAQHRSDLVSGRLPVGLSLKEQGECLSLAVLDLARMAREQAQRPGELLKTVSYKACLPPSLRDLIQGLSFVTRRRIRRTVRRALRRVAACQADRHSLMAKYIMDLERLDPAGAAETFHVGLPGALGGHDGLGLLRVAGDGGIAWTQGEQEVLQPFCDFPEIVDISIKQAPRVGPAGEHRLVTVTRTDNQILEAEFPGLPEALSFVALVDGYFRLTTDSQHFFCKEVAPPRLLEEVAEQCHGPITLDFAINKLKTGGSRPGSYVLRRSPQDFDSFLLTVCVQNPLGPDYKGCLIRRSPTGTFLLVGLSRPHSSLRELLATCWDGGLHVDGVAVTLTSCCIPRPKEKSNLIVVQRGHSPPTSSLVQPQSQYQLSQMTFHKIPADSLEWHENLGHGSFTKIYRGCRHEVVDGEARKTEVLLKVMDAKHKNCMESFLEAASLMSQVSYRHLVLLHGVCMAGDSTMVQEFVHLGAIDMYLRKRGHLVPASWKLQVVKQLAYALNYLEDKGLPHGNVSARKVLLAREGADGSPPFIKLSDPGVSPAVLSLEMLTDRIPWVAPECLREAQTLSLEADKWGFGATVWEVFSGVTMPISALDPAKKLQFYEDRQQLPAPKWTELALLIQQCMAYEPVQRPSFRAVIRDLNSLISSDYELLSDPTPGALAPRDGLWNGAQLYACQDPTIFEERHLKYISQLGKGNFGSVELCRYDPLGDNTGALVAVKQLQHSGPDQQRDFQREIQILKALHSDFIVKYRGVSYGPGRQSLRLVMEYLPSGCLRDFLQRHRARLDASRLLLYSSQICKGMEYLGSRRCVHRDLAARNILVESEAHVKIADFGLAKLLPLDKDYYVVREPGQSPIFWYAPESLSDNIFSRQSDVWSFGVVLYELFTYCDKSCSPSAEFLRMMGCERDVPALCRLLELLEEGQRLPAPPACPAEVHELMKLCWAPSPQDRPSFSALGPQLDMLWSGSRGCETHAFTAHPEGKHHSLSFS
In words: Inhibition of GST-fused JAK3 (811 to 1124 residues) (unknown origin) using Carboxyfluorescein-Ahx-GGEEEEYFELVKKKK peptide as substrate incubated for 60 mins in presence of ATP by Janus kinase assay.

The target in data set [6] is Tyrosine-protein kinase JAK1 (Homo sapiens, UniProt P23458). In words: Inhibition of GST-fused JAK1 (866 to 1154 residues) (unknown origin) using FITC-AhxKKSRGDYMTMQIG-NH2 peptide as substrate incubated for 60 mins in presence of ATP by Janus kinase assay.
The nature of data set [7]: Dissociation constant, pKa of compound. It is filed as physicochemical.
The target of data set [8] is Tyrosine-protein kinase Lck (Homo sapiens, UniProt P06239). In words: Inhibition of LCK (unknown origin).
Data set [9] addresses T3, Serine/threonine-protein kinase 4 (Homo sapiens, UniProt Q13043).
T3 sequence (Q13043 whole entry): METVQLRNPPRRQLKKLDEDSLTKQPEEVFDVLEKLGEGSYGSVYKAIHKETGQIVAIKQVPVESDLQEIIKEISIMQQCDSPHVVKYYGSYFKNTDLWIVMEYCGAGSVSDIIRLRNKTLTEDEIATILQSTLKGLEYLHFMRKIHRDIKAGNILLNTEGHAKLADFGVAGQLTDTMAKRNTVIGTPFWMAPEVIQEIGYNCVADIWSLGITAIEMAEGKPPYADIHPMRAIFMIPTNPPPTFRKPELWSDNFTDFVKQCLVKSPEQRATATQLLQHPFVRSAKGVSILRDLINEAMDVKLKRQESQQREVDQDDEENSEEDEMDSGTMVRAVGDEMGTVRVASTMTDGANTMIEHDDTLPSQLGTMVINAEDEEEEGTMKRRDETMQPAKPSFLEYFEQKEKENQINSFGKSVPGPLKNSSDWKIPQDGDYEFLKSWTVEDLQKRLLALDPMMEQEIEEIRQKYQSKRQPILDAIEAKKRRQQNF
Briefly: Inhibition of STK4 (unknown origin).

Data set [10] is described as follows: Inhibition of p70S6K (unknown origin). Further details: species or system Homo sapiens.
Data set [11] concerns the target Glycogen synthase kinase-3 beta (Homo sapiens, UniProt P49841). Briefly: Inhibition of GSK3B (unknown origin).
Data set [12] has as its target T4, Receptor-type tyrosine-protein kinase FLT3 (Homo sapiens, UniProt P36888).
T4 sequence (P36888 whole entry): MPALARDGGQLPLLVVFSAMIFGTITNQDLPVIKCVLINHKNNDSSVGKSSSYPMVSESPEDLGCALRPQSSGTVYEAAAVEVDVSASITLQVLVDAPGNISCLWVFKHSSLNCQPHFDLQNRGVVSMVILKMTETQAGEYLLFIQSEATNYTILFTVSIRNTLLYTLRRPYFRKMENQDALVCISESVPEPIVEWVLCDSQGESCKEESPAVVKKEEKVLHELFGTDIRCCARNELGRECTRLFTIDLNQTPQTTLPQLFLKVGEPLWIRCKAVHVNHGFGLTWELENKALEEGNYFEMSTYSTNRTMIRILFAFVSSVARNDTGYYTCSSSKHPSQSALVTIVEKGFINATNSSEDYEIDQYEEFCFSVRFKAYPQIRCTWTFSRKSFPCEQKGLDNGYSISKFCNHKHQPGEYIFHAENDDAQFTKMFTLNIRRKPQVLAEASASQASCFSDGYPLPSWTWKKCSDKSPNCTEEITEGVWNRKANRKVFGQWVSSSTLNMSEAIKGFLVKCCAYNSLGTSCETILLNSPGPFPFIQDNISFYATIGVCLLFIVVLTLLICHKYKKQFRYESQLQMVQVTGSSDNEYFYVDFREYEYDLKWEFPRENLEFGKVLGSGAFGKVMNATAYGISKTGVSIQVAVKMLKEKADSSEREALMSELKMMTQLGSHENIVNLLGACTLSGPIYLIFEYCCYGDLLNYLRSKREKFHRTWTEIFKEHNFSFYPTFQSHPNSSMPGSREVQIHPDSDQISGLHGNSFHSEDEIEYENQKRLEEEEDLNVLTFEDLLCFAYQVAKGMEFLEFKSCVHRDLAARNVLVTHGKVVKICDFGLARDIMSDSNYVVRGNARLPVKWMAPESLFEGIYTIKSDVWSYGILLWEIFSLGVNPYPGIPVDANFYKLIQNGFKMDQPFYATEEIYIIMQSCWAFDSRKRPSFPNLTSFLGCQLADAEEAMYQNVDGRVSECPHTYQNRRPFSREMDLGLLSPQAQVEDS
Briefly: Inhibition of FLT3 (unknown origin).

Data set [13] concerns the target T5, Interleukin-1 receptor-associated kinase 4 (Homo sapiens, UniProt Q9NWZ3).
T5 sequence (Q9NWZ3 whole entry): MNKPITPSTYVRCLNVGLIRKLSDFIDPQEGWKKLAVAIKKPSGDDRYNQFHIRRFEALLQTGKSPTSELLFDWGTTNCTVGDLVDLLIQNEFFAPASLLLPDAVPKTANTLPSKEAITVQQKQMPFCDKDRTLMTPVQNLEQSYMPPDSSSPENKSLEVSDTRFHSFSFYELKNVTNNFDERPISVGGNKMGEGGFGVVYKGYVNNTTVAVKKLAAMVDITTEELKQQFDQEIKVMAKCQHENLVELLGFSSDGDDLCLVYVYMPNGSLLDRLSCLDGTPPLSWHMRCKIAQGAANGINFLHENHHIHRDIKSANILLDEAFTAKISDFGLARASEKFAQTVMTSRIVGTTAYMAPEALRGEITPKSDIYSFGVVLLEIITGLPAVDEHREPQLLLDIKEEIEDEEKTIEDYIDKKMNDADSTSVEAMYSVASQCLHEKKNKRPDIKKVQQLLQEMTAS
In words: Inhibition of IRAK4 (unknown origin).

The target in data set [14] is Vascular endothelial growth factor receptor 2 (Homo sapiens, UniProt P35968). Briefly: Inhibition of KDR (unknown origin).
The target of the next data set is T6, Aurora kinase A (Homo sapiens, UniProt O14965).
T6 sequence (O14965 whole entry): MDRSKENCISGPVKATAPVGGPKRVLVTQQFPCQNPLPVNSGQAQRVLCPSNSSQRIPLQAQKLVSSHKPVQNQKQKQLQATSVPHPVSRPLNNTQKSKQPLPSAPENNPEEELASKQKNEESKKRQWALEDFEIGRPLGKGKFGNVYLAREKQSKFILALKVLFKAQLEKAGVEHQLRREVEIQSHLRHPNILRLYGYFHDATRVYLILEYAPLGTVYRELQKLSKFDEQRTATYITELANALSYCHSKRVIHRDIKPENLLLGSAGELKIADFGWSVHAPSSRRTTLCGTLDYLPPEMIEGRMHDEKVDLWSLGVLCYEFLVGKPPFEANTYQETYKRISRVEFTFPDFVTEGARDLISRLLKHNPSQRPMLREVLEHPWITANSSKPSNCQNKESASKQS
In words: Inhibition of AuroraA (unknown origin).

The nature of another data set: in vitro. Particulars: human, liver microsomes. For orientation: Microsomes from liver hold many membrane-bound enzymes, among them those of drug oxidation.

Bounds are passed on as bounds.

T1 sequence (P23458 whole entry, one chain of several): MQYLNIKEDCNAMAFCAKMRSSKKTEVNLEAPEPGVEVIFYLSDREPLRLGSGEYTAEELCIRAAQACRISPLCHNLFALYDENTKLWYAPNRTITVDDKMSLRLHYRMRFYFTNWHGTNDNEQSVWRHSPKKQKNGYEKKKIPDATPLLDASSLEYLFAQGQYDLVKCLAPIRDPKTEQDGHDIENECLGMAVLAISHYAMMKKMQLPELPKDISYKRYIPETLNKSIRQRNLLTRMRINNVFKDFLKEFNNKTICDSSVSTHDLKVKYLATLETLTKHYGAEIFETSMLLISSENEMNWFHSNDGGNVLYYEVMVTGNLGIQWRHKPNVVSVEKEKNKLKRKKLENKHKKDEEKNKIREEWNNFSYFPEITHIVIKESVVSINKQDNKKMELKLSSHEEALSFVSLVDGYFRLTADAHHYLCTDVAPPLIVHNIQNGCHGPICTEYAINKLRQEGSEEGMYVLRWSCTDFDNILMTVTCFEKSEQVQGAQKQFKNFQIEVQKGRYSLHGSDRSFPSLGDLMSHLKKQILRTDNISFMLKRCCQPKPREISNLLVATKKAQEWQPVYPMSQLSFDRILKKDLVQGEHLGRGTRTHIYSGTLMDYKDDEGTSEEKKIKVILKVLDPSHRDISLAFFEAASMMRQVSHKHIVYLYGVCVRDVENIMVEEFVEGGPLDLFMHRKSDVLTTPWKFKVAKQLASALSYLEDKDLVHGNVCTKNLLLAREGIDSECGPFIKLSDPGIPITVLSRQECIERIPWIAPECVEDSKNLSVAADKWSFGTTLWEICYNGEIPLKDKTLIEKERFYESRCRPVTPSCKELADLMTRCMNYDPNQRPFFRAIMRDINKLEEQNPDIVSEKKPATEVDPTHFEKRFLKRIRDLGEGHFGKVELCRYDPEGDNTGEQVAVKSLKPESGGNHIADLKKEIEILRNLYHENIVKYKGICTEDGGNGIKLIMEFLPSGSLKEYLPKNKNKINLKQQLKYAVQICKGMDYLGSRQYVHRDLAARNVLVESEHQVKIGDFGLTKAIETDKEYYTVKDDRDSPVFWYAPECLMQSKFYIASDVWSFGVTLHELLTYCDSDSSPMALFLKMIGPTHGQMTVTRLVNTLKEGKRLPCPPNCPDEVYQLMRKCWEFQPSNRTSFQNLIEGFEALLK
Non-receptor tyrosine-protein kinase TYK2, sequence (P29597 whole entry, the tested form may be a part): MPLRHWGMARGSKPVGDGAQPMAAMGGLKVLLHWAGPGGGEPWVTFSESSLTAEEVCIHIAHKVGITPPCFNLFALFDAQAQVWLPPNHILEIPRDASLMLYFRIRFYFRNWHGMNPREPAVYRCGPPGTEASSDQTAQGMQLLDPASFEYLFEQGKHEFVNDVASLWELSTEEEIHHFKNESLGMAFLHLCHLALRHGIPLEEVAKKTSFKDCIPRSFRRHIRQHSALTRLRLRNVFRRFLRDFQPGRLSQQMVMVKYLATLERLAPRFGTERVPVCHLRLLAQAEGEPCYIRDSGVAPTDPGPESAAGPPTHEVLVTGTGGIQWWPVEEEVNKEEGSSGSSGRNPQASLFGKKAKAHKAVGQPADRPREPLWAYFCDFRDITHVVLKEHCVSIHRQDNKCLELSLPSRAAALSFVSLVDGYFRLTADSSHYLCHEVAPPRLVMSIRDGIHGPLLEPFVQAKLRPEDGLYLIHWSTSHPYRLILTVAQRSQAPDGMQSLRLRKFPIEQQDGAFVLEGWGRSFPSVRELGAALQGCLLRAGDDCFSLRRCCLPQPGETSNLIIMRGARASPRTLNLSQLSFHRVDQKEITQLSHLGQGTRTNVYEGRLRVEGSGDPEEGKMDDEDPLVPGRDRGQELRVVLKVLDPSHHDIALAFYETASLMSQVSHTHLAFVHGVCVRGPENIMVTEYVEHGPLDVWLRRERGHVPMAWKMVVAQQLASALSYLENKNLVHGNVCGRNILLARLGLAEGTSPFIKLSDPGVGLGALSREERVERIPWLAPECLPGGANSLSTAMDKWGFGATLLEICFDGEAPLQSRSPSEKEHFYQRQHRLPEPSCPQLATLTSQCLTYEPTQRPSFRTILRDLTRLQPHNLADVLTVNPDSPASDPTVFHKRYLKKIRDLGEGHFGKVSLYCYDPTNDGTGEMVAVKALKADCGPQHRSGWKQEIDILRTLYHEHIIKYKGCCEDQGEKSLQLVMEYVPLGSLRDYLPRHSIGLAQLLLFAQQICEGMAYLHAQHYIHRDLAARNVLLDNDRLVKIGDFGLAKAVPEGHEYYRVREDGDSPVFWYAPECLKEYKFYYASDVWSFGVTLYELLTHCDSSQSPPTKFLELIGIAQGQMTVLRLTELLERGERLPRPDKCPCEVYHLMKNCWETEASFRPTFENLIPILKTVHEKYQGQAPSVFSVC
Tyrosine-protein kinase JAK2, sequence (O60674 whole entry, the tested form may be a part): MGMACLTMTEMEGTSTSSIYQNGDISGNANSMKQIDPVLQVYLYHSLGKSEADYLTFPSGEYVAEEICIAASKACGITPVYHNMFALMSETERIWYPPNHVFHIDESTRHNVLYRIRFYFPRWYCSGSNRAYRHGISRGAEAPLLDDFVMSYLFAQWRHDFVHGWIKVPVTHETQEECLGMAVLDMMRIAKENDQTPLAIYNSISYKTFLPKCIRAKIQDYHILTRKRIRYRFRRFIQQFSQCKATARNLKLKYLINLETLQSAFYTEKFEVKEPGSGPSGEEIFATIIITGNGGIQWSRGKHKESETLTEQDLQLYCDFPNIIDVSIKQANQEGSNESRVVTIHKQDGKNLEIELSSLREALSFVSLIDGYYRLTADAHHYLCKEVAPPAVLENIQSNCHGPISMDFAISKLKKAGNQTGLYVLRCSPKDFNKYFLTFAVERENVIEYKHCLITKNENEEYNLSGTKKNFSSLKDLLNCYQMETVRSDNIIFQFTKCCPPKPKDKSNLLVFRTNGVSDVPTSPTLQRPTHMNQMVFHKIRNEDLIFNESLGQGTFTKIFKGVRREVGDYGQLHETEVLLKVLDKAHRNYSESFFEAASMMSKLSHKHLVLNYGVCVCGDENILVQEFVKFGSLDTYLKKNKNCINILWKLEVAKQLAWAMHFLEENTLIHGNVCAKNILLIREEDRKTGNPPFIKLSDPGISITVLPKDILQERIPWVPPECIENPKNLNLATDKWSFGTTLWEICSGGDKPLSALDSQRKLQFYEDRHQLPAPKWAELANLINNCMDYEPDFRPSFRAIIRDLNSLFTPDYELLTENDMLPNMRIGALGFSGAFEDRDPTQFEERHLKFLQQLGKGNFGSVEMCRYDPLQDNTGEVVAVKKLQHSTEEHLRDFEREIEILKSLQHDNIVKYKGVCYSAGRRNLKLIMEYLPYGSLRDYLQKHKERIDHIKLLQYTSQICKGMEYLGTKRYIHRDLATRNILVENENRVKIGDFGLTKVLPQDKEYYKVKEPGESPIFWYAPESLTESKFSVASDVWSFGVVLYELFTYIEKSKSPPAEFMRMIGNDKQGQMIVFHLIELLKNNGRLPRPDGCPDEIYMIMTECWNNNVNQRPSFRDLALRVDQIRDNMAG
Tyrosine-protein kinase JAK1, sequence (P23458 whole entry, the tested form may be a part): as the sequence (P23458 whole entry, one chain of several) above
JAK1/TYK2, sequence (P23458 whole entry, the tested form may be a part): as the sequence (P23458 whole entry, one chain of several) above
JAK1/TYK2, sequence (P29597 whole entry, the tested form may be a part): as the sequence (P29597 whole entry, the tested form may be a part) above
Glycogen synthase kinase-3 beta, sequence (P49841 whole entry): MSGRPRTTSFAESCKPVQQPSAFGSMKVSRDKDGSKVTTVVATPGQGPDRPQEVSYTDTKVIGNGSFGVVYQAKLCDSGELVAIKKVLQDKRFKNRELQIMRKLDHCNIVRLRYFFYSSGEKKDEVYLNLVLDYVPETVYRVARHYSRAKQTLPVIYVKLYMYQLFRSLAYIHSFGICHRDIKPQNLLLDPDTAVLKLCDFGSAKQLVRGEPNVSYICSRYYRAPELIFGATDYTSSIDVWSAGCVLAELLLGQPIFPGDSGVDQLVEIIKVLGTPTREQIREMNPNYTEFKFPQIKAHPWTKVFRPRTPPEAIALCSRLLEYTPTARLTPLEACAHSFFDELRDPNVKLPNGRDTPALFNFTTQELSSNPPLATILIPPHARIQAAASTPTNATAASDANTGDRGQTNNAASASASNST
Tyrosine-protein kinase Lck, sequence (P06239 whole entry): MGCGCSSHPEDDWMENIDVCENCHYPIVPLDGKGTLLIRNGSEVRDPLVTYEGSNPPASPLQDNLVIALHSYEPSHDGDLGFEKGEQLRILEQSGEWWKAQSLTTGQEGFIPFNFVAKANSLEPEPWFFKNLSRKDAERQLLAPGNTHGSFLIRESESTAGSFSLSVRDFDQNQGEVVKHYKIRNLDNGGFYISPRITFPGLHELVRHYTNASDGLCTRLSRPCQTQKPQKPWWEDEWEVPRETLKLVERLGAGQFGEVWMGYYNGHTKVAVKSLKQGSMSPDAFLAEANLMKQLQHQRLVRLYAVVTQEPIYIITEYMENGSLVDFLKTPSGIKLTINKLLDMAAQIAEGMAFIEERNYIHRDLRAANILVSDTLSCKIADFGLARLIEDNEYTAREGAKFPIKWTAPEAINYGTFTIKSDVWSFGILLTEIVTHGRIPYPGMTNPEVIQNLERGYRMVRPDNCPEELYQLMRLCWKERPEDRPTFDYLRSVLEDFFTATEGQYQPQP
Description for in vitro: Intrinsic clearance in human liver microsomes

For `CCOC(=O)Oc1cccc(Nc2cc(Nc3ccccc3Cl)c(C(N)=O)cn2)n1`, the IC50 – broadly, the midpoint of a concentration-inhibition curve – in [1] was 59 nM; at JAK3/JAK1 [2], > 30000 nM; on JAK3/JAK1 [3], 116 nM; on JAK1/TYK2, 71 nM; in [4], 52 nM; in [5] it was 76 nM. In addition, the IC50 in data set [6] came to 131 nM.

Turning to `Cc1cccc(Nc2cc(Nc3ccccc3Cl)c(C(N)=O)cn2)n1`, the half-inhibitory concentration (IC50) in data set [1] is 60 nM. For the same compound, in [7], the pKa (commonly the negative logarithm of the acid dissociation constant) was 6.2.

Take `NC(=O)c1cnc(Nc2cccc(O)n2)cc1Nc1ccccc1Cl`: the IC50 in [8] is > 2500 nM; in data set [1], 2090 nM; at JAK3/JAK1 [2] it was > 30000 nM; in data set [9], > 2500 nM; in data set [10], > 2500 nM; at JAK3/JAK1 [3] it was > 10000 nM. The IC50 in data set [11] is > 2500 nM; in data set [12] it was > 2500 nM; on JAK1/TYK2, > 10000 nM; in data set [13], > 2500 nM; in data set [4], 3150 nM; in data set [5], 4560 nM. Besides, the IC50 is > 2500 nM in data set [14], > 2500 nM against Aurora kinase A and 3270 nM in data set [6].

As for `COc1cccc(Nc2cc(Nc3ccccc3Cl)c(C(N)=O)cn2)n1`, the half-maximal inhibitory concentration (IC50) in data set [1] is 77 nM; on JAK3/JAK1 [2], 2170 nM; at JAK3/JAK1 [3] it was 169 nM; on JAK1/TYK2, 271 nM; in data set [4], 76 nM; in [5] it was 89 nM. Besides, in [6], the half-inhibitory concentration (IC50) came out at 103 nM.

With `C[C@H]1CN(C(=O)CC#N)[C@]12CCN(c1ncnc3[nH]ccc13)C2` [DELGOCITINIB], the microsomal CLint (commonly the rate of metabolic loss divided by the concentration) in the data set “in vitro” was < 25 µL/min/mg.

On to `NC(=O)c1cnc(Nc2ccc(O)cn2)cc1Nc1ccccc1Cl`, for which the IC50 against JAK3/JAK1 [2] stood at 525 nM; at JAK3/JAK1 [3] it was 218 nM; on JAK1/TYK2 it was 290 nM; in data set [4], 20 nM; in [5], 20 nM; in data set [6], 14 nM.
